Activity calls are given as the source filed them. The rule behind the calls is not given here.

Test [1] addresses Nucleotide-binding oligomerization domain-containing protein 2 (Homo sapiens) (UniProt Q9HC29). Kind of test: Modulation of NOD2 (unknown origin).
Test [2] addresses T1, Nucleotide-binding oligomerization domain-containing protein 1 (Homo sapiens) (UniProt Q9Y239).
T1 sequence (whole entry): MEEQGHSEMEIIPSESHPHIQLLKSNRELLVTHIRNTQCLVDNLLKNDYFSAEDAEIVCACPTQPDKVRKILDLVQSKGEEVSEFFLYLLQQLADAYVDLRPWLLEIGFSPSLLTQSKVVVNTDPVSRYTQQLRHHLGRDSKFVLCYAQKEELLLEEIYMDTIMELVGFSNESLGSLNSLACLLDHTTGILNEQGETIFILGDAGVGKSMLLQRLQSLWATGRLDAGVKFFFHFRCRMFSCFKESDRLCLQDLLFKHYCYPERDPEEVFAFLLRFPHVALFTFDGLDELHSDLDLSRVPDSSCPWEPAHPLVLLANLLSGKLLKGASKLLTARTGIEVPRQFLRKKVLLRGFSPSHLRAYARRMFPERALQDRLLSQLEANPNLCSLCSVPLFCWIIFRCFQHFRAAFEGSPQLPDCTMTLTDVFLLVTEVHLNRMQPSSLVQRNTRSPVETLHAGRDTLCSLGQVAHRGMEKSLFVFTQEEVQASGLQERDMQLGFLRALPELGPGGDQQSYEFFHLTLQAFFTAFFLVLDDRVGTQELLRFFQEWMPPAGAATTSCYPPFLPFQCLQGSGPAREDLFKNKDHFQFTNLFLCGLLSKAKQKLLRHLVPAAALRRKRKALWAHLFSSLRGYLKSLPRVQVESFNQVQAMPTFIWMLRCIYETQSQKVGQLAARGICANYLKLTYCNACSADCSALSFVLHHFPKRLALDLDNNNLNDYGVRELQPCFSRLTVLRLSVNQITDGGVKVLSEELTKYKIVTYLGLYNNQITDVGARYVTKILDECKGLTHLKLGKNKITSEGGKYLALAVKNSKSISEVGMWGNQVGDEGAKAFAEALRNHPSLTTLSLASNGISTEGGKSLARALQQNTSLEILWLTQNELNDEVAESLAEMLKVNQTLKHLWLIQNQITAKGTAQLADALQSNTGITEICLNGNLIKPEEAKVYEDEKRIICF
Kind of test: Modulation of NOD1 (unknown origin).

Test [3] has as its target T2, Toll-like receptor 9 (Homo sapiens) (UniProt Q9NR96).
T2 sequence (whole entry): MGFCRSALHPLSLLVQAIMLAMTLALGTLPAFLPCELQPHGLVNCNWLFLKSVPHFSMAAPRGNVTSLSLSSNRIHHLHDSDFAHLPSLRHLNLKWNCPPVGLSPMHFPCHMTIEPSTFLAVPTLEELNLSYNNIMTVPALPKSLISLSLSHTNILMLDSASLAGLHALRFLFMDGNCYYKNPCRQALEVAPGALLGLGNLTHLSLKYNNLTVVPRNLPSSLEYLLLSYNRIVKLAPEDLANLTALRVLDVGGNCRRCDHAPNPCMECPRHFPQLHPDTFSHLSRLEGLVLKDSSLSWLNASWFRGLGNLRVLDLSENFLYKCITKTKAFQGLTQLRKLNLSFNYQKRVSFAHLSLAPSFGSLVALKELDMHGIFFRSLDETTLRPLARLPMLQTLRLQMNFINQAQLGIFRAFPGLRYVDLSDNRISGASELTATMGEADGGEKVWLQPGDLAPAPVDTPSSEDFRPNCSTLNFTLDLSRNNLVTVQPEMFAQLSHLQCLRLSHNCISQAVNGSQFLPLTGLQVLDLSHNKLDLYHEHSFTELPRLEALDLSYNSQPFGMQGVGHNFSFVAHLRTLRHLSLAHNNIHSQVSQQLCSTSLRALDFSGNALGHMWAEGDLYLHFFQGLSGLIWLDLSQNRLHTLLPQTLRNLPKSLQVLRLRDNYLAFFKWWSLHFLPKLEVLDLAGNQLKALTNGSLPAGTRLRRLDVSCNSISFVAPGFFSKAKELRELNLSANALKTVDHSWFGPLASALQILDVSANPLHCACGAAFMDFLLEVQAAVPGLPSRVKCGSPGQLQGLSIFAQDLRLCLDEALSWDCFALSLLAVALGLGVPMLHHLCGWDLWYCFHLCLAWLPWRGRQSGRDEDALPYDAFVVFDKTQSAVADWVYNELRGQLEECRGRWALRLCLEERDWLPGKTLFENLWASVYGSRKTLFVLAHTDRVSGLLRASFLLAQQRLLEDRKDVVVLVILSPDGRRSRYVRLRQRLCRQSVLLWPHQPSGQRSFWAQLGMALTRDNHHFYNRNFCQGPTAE
Kind of test: Modulation of human TLR9 expressed in HEK293 cells co-transfected with MD2 and sAP assessed as induction of NF-kappaB activity by reporter gene assay. The class given is cell-based.

Test [4] deals with T3, Toll-like receptor 8 (Homo sapiens) (UniProt Q9NR97).
T3 sequence (whole entry): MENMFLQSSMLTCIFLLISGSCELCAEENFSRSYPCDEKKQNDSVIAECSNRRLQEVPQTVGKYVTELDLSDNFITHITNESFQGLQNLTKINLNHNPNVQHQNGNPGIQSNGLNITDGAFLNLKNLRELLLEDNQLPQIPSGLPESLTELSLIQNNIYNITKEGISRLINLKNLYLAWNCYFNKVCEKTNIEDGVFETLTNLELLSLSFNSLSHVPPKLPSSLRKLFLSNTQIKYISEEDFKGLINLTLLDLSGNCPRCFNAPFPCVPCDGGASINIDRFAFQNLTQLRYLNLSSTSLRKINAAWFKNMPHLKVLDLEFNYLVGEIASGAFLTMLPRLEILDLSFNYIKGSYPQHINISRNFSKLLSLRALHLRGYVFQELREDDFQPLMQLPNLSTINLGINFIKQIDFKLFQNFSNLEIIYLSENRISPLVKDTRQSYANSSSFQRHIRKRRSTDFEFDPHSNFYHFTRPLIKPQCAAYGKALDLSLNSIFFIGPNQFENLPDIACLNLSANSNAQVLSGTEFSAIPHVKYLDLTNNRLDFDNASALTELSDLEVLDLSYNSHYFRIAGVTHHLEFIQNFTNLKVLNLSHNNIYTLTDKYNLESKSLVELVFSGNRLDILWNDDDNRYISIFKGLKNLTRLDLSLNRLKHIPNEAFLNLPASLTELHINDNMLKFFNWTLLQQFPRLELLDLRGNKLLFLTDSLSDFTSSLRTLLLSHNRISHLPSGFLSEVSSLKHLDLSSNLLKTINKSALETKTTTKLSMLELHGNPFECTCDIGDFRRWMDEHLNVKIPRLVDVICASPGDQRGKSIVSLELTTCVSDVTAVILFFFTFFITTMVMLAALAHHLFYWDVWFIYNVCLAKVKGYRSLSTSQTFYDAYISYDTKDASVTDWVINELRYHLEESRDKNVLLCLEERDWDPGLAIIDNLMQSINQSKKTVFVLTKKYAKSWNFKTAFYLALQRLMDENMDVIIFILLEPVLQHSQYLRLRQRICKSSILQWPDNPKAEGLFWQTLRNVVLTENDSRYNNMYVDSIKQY
Kind of test: Agonist activity at TLR8 in human PBMC assessed as increase of GRO level after 12 hrs.

In test [5] the target is T3, Toll-like receptor 8 (Homo sapiens). Kind of test: Agonist activity at TLR8 in human PBMC assessed as increase of MIP1alpha level after 12 hrs.
For test [6] the target is unchanged. Kind of test: Agonist activity at TLR8 in human PBMC assessed as increase of MIP1beta level after 12 hrs.
Test [7] has the same target. Kind of test: Agonist activity at TLR8 in human PBMC assessed as increase of G-CSF level after 12 hrs.
Test [8] shares this target. Kind of test: Modulation of human TLR8 expressed in HEK293 cells co-transfected with MD2 and sAP assessed as induction of NF-kappaB activity by reporter gene assay. The class given is cell-based. (A reporter such as luciferase makes a cellular process visible.)
The target is the same in test [9]. Kind of test: Agonist activity at human TLR8 expressed in HEK293 cells co-transfected with MD2 and sAP assessed as induction of NF-kappaB activity by reporter gene assay. The class given is cell-based.

Nucleotide-binding oligomerization domain-containing protein 2 (Homo sapiens), sequence (Q9HC29 whole entry, the tested form may be a part): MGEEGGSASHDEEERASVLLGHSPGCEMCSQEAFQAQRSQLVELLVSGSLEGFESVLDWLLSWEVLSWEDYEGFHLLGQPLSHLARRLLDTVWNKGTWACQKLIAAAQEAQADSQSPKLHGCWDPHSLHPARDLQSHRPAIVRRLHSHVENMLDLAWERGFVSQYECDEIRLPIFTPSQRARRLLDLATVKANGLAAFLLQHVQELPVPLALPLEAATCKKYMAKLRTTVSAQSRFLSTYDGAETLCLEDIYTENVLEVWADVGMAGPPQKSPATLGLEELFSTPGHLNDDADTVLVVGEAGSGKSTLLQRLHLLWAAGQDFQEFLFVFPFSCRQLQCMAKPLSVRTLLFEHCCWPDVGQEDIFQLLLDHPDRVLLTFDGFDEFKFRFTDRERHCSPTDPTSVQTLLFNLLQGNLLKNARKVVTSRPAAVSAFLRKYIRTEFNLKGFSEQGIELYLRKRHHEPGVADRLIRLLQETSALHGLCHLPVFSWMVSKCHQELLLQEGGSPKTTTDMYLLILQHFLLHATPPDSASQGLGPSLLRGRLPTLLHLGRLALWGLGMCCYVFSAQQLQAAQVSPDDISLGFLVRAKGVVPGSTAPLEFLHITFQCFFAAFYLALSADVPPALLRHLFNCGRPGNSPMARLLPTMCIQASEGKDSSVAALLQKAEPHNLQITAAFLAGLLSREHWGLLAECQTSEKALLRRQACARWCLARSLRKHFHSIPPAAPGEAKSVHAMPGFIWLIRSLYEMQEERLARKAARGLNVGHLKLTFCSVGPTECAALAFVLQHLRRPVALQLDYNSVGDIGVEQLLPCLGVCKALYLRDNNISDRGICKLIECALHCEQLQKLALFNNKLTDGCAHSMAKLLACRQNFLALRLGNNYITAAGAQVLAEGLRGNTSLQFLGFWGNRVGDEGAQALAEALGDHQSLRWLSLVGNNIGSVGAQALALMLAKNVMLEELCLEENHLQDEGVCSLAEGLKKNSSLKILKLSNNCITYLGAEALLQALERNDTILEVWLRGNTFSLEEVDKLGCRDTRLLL

`CCCCc1cc2c(o1)c(N)nc1ccccc12`: the outcome in test [1], in test [2] and in [3] was Active.
For `CCCCc1nc2c(N)nc3ccccc3c2n1Cc1ccccc1`, the outcome in test [4], in test [5], in test [6] and in [7] was inactive.
Take `CCCCCCc1cc2c(o1)c(N)nc1ccccc12`: the outcome in test [8] and in [9] was Active.
`Nc1nc2ccccc2c2ccoc12`: in test [9], the result was inactive.
Take `CCCc1nc2c(N)nc3ccccc3c2s1`: the result in [4], in test [5], in [6] and in test [7] was Active.
For `Cc1cc2c(o1)c(N)nc1ccccc12`, the outcome in test [8] and in test [9] was Active.
As to `CCCc1cc2c(o1)c(N)nc1ccccc12`, the outcome in test [8] and in test [9] was Active.
For the compound `CCCCCc1cc2c(o1)c(N)nc1ccccc12`, the outcome in test [8] and in [9] was Active.

The record behind these values is ChEMBL document CHEMBL2417394, “Exquisite selectivity for human toll-like receptor 8 in substituted furo[2,3-c]quinolines” (J Med Chem, 2013).
